PubChem BioAssay (NCI)
Where “and” joins values, the source holds several entries; their conditions need not be identical. Identical values can stand only once.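 Assay format: 96-well plates, 48-hour exposure. GI50: concentration for 50% inhibition of growth. TGI marks complete inhibition of growth.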

Columns and labels:
Experiment in all cases: inhibition of tumour cell growth, NCI panel, 48 h
DLD-1 colon = test system: DLD-1 colon
HOP-92 NSCLC = test system: HOP-92 NSCLC
HS 578T breast = test system: HS 578T breast
M19-MEL melanoma = test system: M19-MEL melanoma
MDA-MB-435 = test system: MDA-MB-435
OVCAR-4 ovarian = test system: OVCAR-4 ovarian
RXF 393 renal = test system: RXF 393 renal
SNB-75 CNS = test system: SNB-75 CNS
UACC-62 melanoma = test system: UACC-62 melanoma
OVCAR-8 ovarian = test system: OVCAR-8 ovarian

| SMILES | TGI (DLD-1 colon) [µM] | GI50 (HOP-92 NSCLC) [µM] | TGI (HOP-92 NSCLC) [µM] | GI50 (HS 578T breast) [µM] | TGI (HS 578T breast) [µM] | TGI (M19-MEL melanoma) [µM] | GI50 (MDA-MB-435) [µM] | TGI (MDA-MB-435) [µM] | TGI (OVCAR-4 ovarian) [µM] | GI50 (RXF 393 renal) [µM] | TGI (RXF 393 renal) | GI50 (SNB-75 CNS) [µM] | TGI (SNB-75 CNS) | GI50 (UACC-62 melanoma) [µM] | TGI (UACC-62 melanoma) [µM] | GI50 (DLD-1 colon) [µM] | GI50 (OVCAR-4 ovarian) [µM] | GI50 (OVCAR-8 ovarian) [µM] | TGI (OVCAR-8 ovarian) [µM] |
| --- | --- | --- | --- | --- | --- | --- | --- | --- | --- | --- | --- | --- | --- | --- | --- | --- | --- | --- | --- |
| CN(C)c1ccc(C(=C2C=CC(=[N+](C)C)C=C2)c2ccc(N(C)C)cc2)cc1 | 1.74 | 0.145 | 0.461 | 0.0875 | 2.82 | 1.41 | 0.152 | 0.431 | 1.05 | 0.113 | 0.468 µM and 0.695 µM | 0.112 | 0.581 µM and 1.03 µM | 0.261 | 1 | – | – | – | – |
| C/C=C/C=C/CCCCCCCCCCCCCC1(OC)C=CC(CC(=O)OC)OO1 (configuration not stated) | 23.8 | – | 4.12 | – | – | 24.1 | – | – | 2.48 | 4.24 | 15.3 µM | – | 22.4 µM | – | 28 | 5.79 | 1.15 | 3.99 | 14.5 |
| O=C1CCC2(c3ccccc3)Nc3ncccc3N12 (configuration not stated) | > 100 | – | > 100 | – | – | > 100 | – | – | > 100 | – | > 100 µM | – | > 100 µM | – | > 100 | – | – | – | > 100 |
| CS/C(=N\c1nccs1)NC(=O)c1cccc(Cl)c1 | > 100 | – | > 100 | – | – | > 100 | – | – | > 100 | – | > 100 µM | – | > 100 µM | – | > 100 | – | – | – | > 100 |
| O=C(Nc1nc(=S)c2c(ncn2CCO)[nH]1)c1ccccc1 | > 100 | – | > 100 | – | – | > 100 | – | – | > 100 | – | > 100 µM | – | > 100 µM | – | > 100 | – | – | – | > 100 |
| O=C1c2ccccc2CC1C1(O)C(=O)Nc2ccccc21 (configuration not stated) | > 100 | – | > 100 | – | – | > 100 | – | – | > 100 | – | > 100 µM | – | > 100 µM | – | > 100 | – | – | – | > 100 |
| CCCC(Sc1ccccc1)P(=O)(c1ccccc1)c1ccccc1 (configuration not stated) | > 100 | – | 60.1 | – | – | > 100 | – | – | > 100 | – | > 100 µM | – | > 100 µM | – | 37 | – | – | – | > 100 |
